{"source": "paper PMC11819603", "about": "“Development of a reliable, sensitive, and convenient assay for the discovery of new eIF5A hypusination inhibitors” (PLOS ONE, 2025)", "key": {"DHPS [1]": {"target": "T1, DHPS (Homo sapiens, UniProt P49366)", "T1 construct": "host or cells: E. coli BL21 (DE3)", "T1 sequence (P49366 1-369)": "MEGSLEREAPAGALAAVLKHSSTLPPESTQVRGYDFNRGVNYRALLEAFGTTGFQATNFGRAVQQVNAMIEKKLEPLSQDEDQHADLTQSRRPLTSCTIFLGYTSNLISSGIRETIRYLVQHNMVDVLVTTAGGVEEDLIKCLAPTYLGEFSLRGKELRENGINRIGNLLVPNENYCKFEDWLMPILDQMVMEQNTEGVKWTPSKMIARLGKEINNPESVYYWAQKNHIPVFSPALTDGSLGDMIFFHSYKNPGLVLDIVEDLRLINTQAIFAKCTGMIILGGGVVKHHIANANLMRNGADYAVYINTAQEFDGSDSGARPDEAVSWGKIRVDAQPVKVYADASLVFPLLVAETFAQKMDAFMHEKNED", "assay": "Hyp'Assay without DOHH: deoxyhypusination of eIF5A revealed with Hpu98 antibody", "format": "biochemical", "description": "To address this issue, we compared the ability of GC7 to inhibit DHPS or DOHH by adding GC7 during the first step of the Hyp’Assay; when DHPS mediates the deoxyhypusination reaction (Fig 2A), or only during the second step, when DOHH hydroxylate deoxyhypusinated eIF5A. […] This confirms the specificity of GC7 towards DHPS. When finding new hypusination inhibitors adding them during the first or the second step of the Hyp’Assay will allow us to determine if the inhibition affects DHPS or DOHH. Another way to discriminate between DHPS or DOHH inhibitors would be to use Hpu98, an antibody that recognized both hypusinated and deoxyhypusinated eIF5A, instead of Hpu24, which is specific for hypusinated eIF5A [18]. […] We performed a new Hyp’Assay by omitting DOHH in the reaction mix and using the Hpu98 antibody. First, we performed a dose response experiment with spermidine at pH: 8.0 and 9.0 (Fig 3E). The Hyp’Assay allows the detection of deoxyhypusinated eIF5A in a spermidine-dependent manner. Under these conditions, deoxyhypusination was equally efficient at both pH tested. […] We also tested the ability of GC7 (Fig 3F) and CPX or EDTA (Fig 3G) to inhibit DHPS. […] This provided us with another method to distinguish between DHPS and DOHH inhibitors.\n(§1) The cell-free reaction described in 4.4 is performed in triplicates in a 96-wells plate (MaxiSorp, ThermoFisher) in the presence of 3 μg of eIF5A, 2 μg of DHPS, and 2 μg of DOHH by well. The reaction product, hypusinated eIF5A, is adsorbed onto the plate overnight at 4°C. The plate is washed (100 μL/well) thrice with PBS-T (PBS– 0.05% Tween20), then saturated with 1% non-fat dry milk in PBS-T for 2 h at room temperature. The plate is washed thrice with PBS-T and incubated overnight at 4°C with the anti-hypusine antibody (1:2000 in saturation buffer, 50 μL/well). The next day and after 5 washes with PBS-T, HRP-coupled anti-rabbit secondary antibody diluted 1:5000 in saturation buffer (50 μL/well) is added for 2 h at room temperature."}, "DOHH": {"target": "T2, DOHH (Homo sapiens, UniProt Q9BU89)", "T2 construct": "pelB leader (N); host or cells: E. coli BL21 (DE3)", "T2 sequence (Q9BU89 1-302)": "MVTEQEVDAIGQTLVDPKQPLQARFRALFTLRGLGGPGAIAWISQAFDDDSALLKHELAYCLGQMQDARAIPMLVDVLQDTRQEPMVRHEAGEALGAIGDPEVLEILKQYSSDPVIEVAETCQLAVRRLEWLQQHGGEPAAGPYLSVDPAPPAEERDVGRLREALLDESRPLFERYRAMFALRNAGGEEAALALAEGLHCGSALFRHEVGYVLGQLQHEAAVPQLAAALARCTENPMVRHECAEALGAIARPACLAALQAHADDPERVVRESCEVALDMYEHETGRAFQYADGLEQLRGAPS", "assay": "Hyp'Assay, substance added after the deoxyhypusination reaction (DOHH step)", "format": "biochemical", "conditions": "control 100,0", "description": "We then tested the ability of DOHH inhibitors to inhibit eIF5A hypusination using the Hyp’Assay. During the Hyp’Assay, DOHH inhibitors were added after the deoxyhypusination reaction.\nTo address this issue, we compared the ability of GC7 to inhibit DHPS or DOHH by adding GC7 during the first step of the Hyp’Assay; when DHPS mediates the deoxyhypusination reaction (Fig 2A), or only during the second step, when DOHH hydroxylate deoxyhypusinated eIF5A. […] When finding new hypusination inhibitors adding them during the first or the second step of the Hyp’Assay will allow us to determine if the inhibition affects DHPS or DOHH. Another way to discriminate between DHPS or DOHH inhibitors would be to use Hpu98, an antibody that recognized both hypusinated and deoxyhypusinated eIF5A, instead of Hpu24, which is specific for hypusinated eIF5A [18]. […] We performed a new Hyp’Assay by omitting DOHH in the reaction mix and using the Hpu98 antibody. First, we performed a dose response experiment with spermidine at pH: 8.0 and 9.0 (Fig 3E). […] We also tested the ability of GC7 (Fig 3F) and CPX or EDTA (Fig 3G) to inhibit DHPS.\n(§2) […] Then 10 μL containing 1 μg of DOHH with 10 μM Fe^2+ (H8FeN2O8S2^. 6H2O) were added. After 1 h proteins were analyzed by Western Blot using antibodies toward DHPS, DOHH, Hypusine, and eIF5A.\nas §1"}, "human DHPS": {"system": "human DHPS", "conditions": "read-out: Km of human DHPS for spermidine, cited from earlier work"}, "DHPS [2]": {"target": "T1, DHPS", "assay": "Hyp'Assay: cell-free eIF5A hypusination in 96-well plates (recombinant eIF5A, DHPS, DOHH; anti-hypusine antibody Hpu24), substance present in the DHPS step", "format": "biochemical", "description": "The principle of the Hyp’Assay (Fig 2A) is to perform eIF5A hypusination reaction in 96-well plates, allow eIF5A to adsorb to the plate, incubate with an anti-hypusine antibody and a secondary antibody conjugated to HRP and reveal hypusination using TMB as a substrate.\nas §2, §1"}}, "note": "Read-outs that look alike come from different tables or passages of the source.", "data": [{"smiles": "NCCCCNCCCN", "note": "[spermidine]", "values": [{"measurement": "deoxyhypusination signal, Mean (quantification from Figure 3E)", "setting": "DHPS [1]; pH: 8.0, spermidine 1 µM as substrate", "value": "0,00"}, {"measurement": "deoxyhypusination signal, Mean (quantification from Figure 3E)", "setting": "DHPS [1]; pH: 8.0, spermidine 10 µM as substrate", "value": "50,47"}, {"measurement": "deoxyhypusination signal, Mean (quantification from Figure 3E)", "setting": "DHPS [1]; pH: 8.0, spermidine 100 µM as substrate", "value": "87,29"}, {"measurement": "deoxyhypusination signal, Mean (quantification from Figure 3E)", "setting": "DHPS [1]; pH: 8.0, spermidine 1000 µM as substrate", "value": "98,05"}, {"measurement": "deoxyhypusination signal, Mean (quantification from Figure 3E)", "setting": "DHPS [1]; pH: 8.0, spermidine 10000 µM as substrate", "value": "100,00"}, {"measurement": "deoxyhypusination signal, Mean (quantification from Figure 3E)", "setting": "DHPS [1]; pH: 9.0, spermidine 1 µM as substrate", "value": "0,00"}, {"measurement": "deoxyhypusination signal, Mean (quantification from Figure 3E)", "setting": "DHPS [1]; pH: 9.0, spermidine 10 µM as substrate", "value": "51,14"}, {"measurement": "deoxyhypusination signal, Mean (quantification from Figure 3E)", "setting": "DHPS [1]; pH: 9.0, spermidine 100 µM as substrate", "value": "85,89"}, {"measurement": "hypusination signal, Mean (quantification from Figure 3C)", "setting": "DOHH; concentration 1 (no unit on page; Fig 3C dose-response 0 to 100 μM)", "value": "84,83"}, {"measurement": "hypusination signal, Mean (quantification from Figure 3C)", "setting": "DOHH; concentration 10 (no unit on page; Fig 3C dose-response 0 to 100 μM)", "value": "82,59"}, {"measurement": "Km", "setting": "human DHPS; ref 23", "value": 4, "unit": "µM"}, {"measurement": "Km", "setting": "human DHPS; ref 24", "value": 7.6, "unit": "µM"}, {"measurement": "EC50", "setting": "DHPS [2]", "value": 5, "unit": "µM"}, {"measurement": "hypusination signal with the substance as substrate, Mean (quantification from Figure S3)", "setting": "DHPS [2]; substrate concentration 0,01 (mM)", "value": "1,46"}, {"measurement": "hypusination signal with the substance as substrate, Mean (quantification from Figure S3)", "setting": "DHPS [2]; substrate concentration 0,1 (mM)", "value": "31,22"}, {"measurement": "hypusination signal with the substance as substrate, Mean (quantification from Figure S3)", "setting": "DHPS [2]; substrate concentration 0,0001 (mM)", "value": "-0,19"}, {"measurement": "hypusination signal with the substance as substrate, Mean (quantification from Figure S3)", "setting": "DHPS [2]; substrate concentration 0,001 (mM)", "value": "-0,21"}, {"measurement": "hypusination signal with the substance as substrate, Mean (quantification from Figure S3)", "setting": "DHPS [2]; substrate concentration 1 (mM)", "value": "68,32"}, {"measurement": "hypusination signal with the substance as substrate, Mean (quantification from Figure S3)", "setting": "DHPS [2]; substrate concentration 10 (mM)", "value": "100,00"}, {"measurement": "hypusination signal with the substance as substrate, Mean (quantification from Figure S3)", "setting": "DHPS [2]; substrate concentration 100 (mM)", "value": "86,96"}, {"measurement": "hypusination signal with the substance as substrate, Mean (quantification from Figure S3)", "setting": "DHPS [2]; substrate concentration 1000 (mM)", "value": "66,59"}]}]}
